± gives the expanded uncertainty stated by the source.
Conditions: Liquid; for mass density: 298.15 K, 101.33 kPa

| mass density [kg/m3] | Normal boiling temperature [°C] | SMILES |
| --- | --- | --- |
| 1058.6 ± 5 | 75.42 ± 0.1 | C1COCO1 [1,3-dioxolane] |
| 786.7 ± 5 | 64.54 ± 0.1 | CO [methanol] |
| 997.2 ± 5 | 99.98 ± 0.1 | O [water] |
